In the supplement of paper PMC12463676, “Small-molecule dissolution of stress granules by redox modulation benefits ALS models” (Nature Chemical Biology, 2025):

How the values were obtained:
lipoamide = compound: NC(=O)CCCCC1CCSS1 [lipoamide]; experiment: thermal stability z-score vs DMSO; higher = more thermally stabilized by treatment; details: HeLa, lipoamide concentration 100 µM
Description: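 Cellular thermal proteome profiling in HeLa cells. Cells were treated with 100 µM lipoamide for 1 h, with or without 1 mM arsenate for a further 1 h, then heated to ten temperatures (37-66.3 °C), and soluble protein was quantified by TMT mass spectrometry relative to 0.1% DMSO controls. The thermal stability score (sum of log2 fold changes minus the abundance score) was transformed to a z-score; mean of n = 3 experiments.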

potassium arsenate = compound: O=[As]([O-])(O)O.[K+] [potassium arsenate]; experiment: as above; details: HeLa; arsenate concentration 1 mM
Description: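 Cellular thermal proteome profiling in HeLa cells treated with 1 mM arsenate for 1 h (DMSO pretreatment), heated to ten temperatures (37-66.3 °C). Soluble protein was quantified by TMT mass spectrometry relative to DMSO controls; the thermal stability score was transformed to a z-score; mean of n = 3 experiments.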

[1] = arsenate co-treatment: 1 mM arsenate 1 h
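Note: each temperature applied for 3 min, abundance score taken as mean log2 fold change at the two lowest temperatures, z-score obtained by mean subtraction and division by SD.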

UniProt Q8IUX1, sequence (Q8IUX1 whole entry): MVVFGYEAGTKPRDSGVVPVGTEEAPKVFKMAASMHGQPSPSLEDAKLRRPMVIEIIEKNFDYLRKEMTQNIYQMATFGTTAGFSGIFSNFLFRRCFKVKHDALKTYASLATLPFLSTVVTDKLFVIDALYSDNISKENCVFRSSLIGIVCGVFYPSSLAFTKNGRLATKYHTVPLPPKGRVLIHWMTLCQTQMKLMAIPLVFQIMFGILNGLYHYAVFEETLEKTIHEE
UniProt O75251, sequence (O75251 whole entry): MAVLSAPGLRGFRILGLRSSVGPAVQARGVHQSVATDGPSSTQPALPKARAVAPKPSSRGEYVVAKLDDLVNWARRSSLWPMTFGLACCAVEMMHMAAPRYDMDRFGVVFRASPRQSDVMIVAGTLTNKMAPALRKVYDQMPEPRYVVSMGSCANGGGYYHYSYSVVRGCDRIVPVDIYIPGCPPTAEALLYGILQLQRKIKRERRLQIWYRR
UniProt P05067, sequence (P05067 whole entry): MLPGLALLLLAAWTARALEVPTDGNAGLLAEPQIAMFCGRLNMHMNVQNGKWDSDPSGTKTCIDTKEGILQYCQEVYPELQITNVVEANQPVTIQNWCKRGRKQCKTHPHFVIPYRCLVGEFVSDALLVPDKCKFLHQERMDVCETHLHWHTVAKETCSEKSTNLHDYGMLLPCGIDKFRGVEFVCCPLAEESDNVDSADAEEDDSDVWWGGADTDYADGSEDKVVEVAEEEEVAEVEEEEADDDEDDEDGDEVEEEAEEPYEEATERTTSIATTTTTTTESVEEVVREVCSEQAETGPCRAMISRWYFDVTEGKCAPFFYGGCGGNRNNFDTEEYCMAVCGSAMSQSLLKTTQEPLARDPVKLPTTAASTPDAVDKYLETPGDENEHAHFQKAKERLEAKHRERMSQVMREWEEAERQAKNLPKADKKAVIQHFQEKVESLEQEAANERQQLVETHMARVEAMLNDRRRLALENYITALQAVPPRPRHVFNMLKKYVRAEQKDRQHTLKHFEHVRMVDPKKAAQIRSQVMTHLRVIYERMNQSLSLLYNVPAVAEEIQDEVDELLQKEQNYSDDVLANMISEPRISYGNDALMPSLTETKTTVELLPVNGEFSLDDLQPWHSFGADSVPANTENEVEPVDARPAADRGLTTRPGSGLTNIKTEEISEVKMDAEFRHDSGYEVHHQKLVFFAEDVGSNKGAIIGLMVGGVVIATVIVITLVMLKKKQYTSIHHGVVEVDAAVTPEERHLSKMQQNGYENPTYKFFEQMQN
UniProt P06748, sequence (P06748 whole entry): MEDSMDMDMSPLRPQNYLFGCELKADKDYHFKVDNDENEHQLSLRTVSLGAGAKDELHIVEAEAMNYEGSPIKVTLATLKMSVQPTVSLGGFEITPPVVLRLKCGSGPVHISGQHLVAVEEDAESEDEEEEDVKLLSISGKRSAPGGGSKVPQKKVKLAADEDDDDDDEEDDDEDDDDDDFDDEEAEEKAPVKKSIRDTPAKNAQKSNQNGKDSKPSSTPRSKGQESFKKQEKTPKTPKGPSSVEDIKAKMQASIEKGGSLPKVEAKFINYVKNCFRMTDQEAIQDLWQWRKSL
UniProt P78406, sequence (P78406 whole entry): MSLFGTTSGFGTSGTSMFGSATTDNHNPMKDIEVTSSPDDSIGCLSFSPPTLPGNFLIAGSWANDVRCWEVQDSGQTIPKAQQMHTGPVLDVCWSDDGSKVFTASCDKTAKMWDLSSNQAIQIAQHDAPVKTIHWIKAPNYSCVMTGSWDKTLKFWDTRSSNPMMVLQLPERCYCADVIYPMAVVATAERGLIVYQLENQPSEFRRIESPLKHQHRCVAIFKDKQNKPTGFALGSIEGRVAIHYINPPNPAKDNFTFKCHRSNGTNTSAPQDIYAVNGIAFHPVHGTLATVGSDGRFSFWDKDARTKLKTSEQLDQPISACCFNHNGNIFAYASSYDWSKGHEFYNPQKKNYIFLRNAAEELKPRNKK
UniProt P46019, sequence (P46019 whole entry): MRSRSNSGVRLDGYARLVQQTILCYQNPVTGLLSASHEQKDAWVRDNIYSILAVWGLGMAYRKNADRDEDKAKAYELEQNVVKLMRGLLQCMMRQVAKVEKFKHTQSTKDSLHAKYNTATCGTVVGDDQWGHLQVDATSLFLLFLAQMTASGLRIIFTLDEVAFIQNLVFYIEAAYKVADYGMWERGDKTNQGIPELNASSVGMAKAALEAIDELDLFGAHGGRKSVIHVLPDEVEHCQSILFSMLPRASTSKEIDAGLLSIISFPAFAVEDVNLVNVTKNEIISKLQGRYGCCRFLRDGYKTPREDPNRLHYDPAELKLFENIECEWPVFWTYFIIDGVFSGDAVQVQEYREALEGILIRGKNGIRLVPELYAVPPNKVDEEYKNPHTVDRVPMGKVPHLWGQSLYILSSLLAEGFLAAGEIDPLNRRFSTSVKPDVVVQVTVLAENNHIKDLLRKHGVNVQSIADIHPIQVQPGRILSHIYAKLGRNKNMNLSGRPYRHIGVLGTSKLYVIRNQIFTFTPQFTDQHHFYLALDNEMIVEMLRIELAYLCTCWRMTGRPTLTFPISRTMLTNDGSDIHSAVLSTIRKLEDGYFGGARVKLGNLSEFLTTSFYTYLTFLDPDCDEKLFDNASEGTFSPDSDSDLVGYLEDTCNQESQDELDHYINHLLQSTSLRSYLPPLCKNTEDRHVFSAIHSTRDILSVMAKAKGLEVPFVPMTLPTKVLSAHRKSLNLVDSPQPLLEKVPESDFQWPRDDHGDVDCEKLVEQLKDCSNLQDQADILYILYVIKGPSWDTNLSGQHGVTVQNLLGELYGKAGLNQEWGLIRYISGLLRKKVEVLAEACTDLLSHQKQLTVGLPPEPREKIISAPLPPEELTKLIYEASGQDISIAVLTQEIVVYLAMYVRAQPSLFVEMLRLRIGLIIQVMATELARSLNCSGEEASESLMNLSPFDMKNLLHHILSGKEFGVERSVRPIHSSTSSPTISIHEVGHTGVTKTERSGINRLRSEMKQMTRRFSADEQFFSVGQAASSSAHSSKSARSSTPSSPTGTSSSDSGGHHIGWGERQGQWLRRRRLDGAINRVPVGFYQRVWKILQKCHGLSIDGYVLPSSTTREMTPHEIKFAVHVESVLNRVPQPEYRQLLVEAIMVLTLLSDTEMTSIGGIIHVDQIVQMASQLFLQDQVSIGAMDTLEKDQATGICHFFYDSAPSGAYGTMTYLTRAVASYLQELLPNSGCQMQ
UniProt P13984, sequence (P13984 whole entry): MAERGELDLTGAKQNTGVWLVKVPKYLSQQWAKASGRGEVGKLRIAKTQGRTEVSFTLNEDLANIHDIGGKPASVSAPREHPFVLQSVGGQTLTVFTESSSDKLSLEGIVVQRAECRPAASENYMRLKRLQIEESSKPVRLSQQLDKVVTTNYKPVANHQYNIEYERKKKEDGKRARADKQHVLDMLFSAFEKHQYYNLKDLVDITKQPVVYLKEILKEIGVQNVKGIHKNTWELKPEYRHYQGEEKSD
UniProt Q7L7X3, sequence (Q7L7X3 whole entry): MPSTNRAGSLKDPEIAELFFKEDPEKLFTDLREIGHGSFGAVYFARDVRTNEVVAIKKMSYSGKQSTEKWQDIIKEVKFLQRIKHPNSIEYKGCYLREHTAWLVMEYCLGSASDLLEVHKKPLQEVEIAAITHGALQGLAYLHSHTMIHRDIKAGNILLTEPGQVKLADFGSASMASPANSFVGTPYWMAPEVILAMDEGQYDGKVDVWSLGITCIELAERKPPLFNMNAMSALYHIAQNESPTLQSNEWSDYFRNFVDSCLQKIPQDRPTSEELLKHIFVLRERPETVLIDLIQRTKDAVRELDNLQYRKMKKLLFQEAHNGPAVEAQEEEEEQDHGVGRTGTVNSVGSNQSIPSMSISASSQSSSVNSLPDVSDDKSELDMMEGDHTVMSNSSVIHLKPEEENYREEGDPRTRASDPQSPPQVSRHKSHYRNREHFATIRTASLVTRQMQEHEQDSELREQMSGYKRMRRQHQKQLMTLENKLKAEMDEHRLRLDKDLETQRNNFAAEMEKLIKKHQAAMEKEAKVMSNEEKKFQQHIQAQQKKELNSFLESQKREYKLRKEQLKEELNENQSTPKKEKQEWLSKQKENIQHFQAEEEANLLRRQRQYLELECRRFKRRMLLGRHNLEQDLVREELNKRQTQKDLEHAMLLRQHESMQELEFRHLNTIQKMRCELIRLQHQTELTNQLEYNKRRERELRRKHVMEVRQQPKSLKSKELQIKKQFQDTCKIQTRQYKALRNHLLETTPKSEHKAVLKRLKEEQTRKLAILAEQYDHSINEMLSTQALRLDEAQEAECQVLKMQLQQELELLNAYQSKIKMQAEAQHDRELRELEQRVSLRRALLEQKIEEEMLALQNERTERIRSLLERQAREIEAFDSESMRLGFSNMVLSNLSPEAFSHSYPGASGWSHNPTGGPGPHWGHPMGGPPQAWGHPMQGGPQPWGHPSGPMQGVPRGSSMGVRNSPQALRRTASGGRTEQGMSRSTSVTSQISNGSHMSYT
UniProt O43583, sequence (O43583 whole entry): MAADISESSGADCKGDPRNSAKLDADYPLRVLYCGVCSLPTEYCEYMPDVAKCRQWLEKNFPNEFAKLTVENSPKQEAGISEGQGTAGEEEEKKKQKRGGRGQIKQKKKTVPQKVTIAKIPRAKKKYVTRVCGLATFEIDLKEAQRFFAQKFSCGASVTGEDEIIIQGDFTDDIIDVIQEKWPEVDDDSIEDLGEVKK
UniProt Q96BZ8, sequence (Q96BZ8 whole entry): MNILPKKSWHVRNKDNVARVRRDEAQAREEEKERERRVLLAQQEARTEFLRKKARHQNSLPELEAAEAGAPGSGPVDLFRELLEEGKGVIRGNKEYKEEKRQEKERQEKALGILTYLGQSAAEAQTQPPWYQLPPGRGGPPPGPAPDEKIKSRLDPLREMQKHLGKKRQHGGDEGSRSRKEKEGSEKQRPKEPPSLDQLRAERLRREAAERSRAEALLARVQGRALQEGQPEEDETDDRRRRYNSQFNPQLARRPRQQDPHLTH
UniProt P31949, sequence (P31949 whole entry): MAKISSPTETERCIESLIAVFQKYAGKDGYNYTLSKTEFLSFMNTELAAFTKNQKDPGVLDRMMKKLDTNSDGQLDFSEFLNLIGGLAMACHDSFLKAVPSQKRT

MTX1 (UniProt Q13505) showed a thermal stability z-score (lipoamide; [1]) of -0.275, a thermal stability z-score (lipoamide; arsenate co-treatment: none) of 0.061 and a thermal stability z-score (potassium arsenate) of 0.421.

For APP (UniProt P05067), the thermal stability z-score (lipoamide; [1]) was -1.82, the thermal stability z-score (lipoamide; arsenate co-treatment: none) was -1.75 and the thermal stability z-score (potassium arsenate) was 0.137.

ACLY (UniProt P53396) gave a thermal stability z-score (lipoamide; [1]) of 0.0389, a thermal stability z-score (lipoamide; arsenate co-treatment: none) of -0.136 and a thermal stability z-score (potassium arsenate) of -0.944.

Target AP2A2 (UniProt O94973) has a thermal stability z-score (lipoamide; [1]) of -0.0644, a thermal stability z-score (lipoamide; arsenate co-treatment: none) of -0.149 and a thermal stability z-score (potassium arsenate) of -0.337.

WDR11 (UniProt Q9BZH6) showed a thermal stability z-score (lipoamide; [1]) of -0.207, a thermal stability z-score (lipoamide; arsenate co-treatment: none) of -0.147 and a thermal stability z-score (potassium arsenate) of -0.267.

Target TAOK1 (UniProt Q7L7X3) has a thermal stability z-score (lipoamide; [1]) of -0.503, a thermal stability z-score (lipoamide; arsenate co-treatment: none) of -0.204 and a thermal stability z-score (potassium arsenate) of -0.658.

For POFUT2 (UniProt Q9Y2G5), the thermal stability z-score (lipoamide; [1]) was -1.74, the thermal stability z-score (lipoamide; arsenate co-treatment: none) was -2.4 and the thermal stability z-score (potassium arsenate) was -0.177.

Work on SMARCA4 (UniProt P51532) yielded a thermal stability z-score (lipoamide; [1]) of 0.212, a thermal stability z-score (lipoamide; arsenate co-treatment: none) of 0.272 and a thermal stability z-score (potassium arsenate) of -0.673.

Work on PCYOX1 (UniProt Q9UHG3) yielded a thermal stability z-score (lipoamide; [1]) of 0.606, a thermal stability z-score (lipoamide; arsenate co-treatment: none) of -0.723 and a thermal stability z-score (potassium arsenate) of 0.0412.

In the case of TARBP1 (UniProt Q13395), the thermal stability z-score (lipoamide; [1]) is reported as -0.285, the thermal stability z-score (lipoamide; arsenate co-treatment: none) is reported as -0.136 and the thermal stability z-score (potassium arsenate) is reported as 0.121.

GEMIN8 (UniProt Q9NWZ8) was tested, and the thermal stability z-score (lipoamide; [1]) was 0.0342, the thermal stability z-score (lipoamide; arsenate co-treatment: none) was -0.0734 and the thermal stability z-score (potassium arsenate) was -0.0475.

For TVP23C|TVP23B, the thermal stability z-score (lipoamide; [1]) was 0.653, the thermal stability z-score (lipoamide; arsenate co-treatment: none) was 1.19 and the thermal stability z-score (potassium arsenate) was 0.27.

With LENG1 (UniProt Q96BZ8) the thermal stability z-score (lipoamide; [1]) was 0.493, the thermal stability z-score (lipoamide; arsenate co-treatment: none) was 0.509 and the thermal stability z-score (potassium arsenate) was 0.544.

RPS13 (UniProt P62277) was tested, and the thermal stability z-score (lipoamide; [1]) was 0.784, the thermal stability z-score (lipoamide; arsenate co-treatment: none) was 0.463 and the thermal stability z-score (potassium arsenate) was -1.11.

For SH3GL2 (UniProt Q99962), the thermal stability z-score (lipoamide; [1]) was 0.272, the thermal stability z-score (lipoamide; arsenate co-treatment: none) was 0.622 and the thermal stability z-score (potassium arsenate) was 0.00309.

VPS37B (UniProt Q9H9H4) showed a thermal stability z-score (lipoamide; [1]) of -0.0126, a thermal stability z-score (lipoamide; arsenate co-treatment: none) of 0.246 and a thermal stability z-score (potassium arsenate) of -0.0299.

In the case of NAA10 (UniProt P41227), the thermal stability z-score (lipoamide; [1]) is reported as 1.16, the thermal stability z-score (lipoamide; arsenate co-treatment: none) is reported as 0.982 and the thermal stability z-score (potassium arsenate) is reported as 0.405.

Work on NPM1 (UniProt P06748) yielded a thermal stability z-score (lipoamide; [1]) of 1.35, a thermal stability z-score (lipoamide; arsenate co-treatment: none) of 0.674 and a thermal stability z-score (potassium arsenate) of -1.07.

Target ASPH (UniProt Q12797) has a thermal stability z-score (lipoamide; [1]) of -2.27, a thermal stability z-score (lipoamide; arsenate co-treatment: none) of -2.04 and a thermal stability z-score (potassium arsenate) of 0.014.

In the case of DDX59 (UniProt Q5T1V6), the thermal stability z-score (lipoamide; [1]) is reported as -0.512, the thermal stability z-score (lipoamide; arsenate co-treatment: none) is reported as -0.363 and the thermal stability z-score (potassium arsenate) is reported as -1.01.

In the case of UBE2G2 (UniProt P60604), the thermal stability z-score (lipoamide; [1]) is reported as 0.327, the thermal stability z-score (lipoamide; arsenate co-treatment: none) is reported as 0.813 and the thermal stability z-score (potassium arsenate) is reported as 0.643.

In the case of HOOK2 (UniProt Q96ED9), the thermal stability z-score (lipoamide; [1]) is reported as 0.0635, the thermal stability z-score (lipoamide; arsenate co-treatment: none) is reported as -0.0859 and the thermal stability z-score (potassium arsenate) is reported as -0.0139.

Work on GSE1 (UniProt Q14687) yielded a thermal stability z-score (lipoamide; [1]) of 0.0903, a thermal stability z-score (lipoamide; arsenate co-treatment: none) of 0.0397 and a thermal stability z-score (potassium arsenate) of -0.12.

MRPS7 (UniProt Q9Y2R9) showed a thermal stability z-score (lipoamide; [1]) of -1.12, a thermal stability z-score (lipoamide; arsenate co-treatment: none) of -0.496 and a thermal stability z-score (potassium arsenate) of 0.102.

NDUFS7 (UniProt O75251) was tested, and the thermal stability z-score (lipoamide; [1]) was 0.142, the thermal stability z-score (lipoamide; arsenate co-treatment: none) was 0.157 and the thermal stability z-score (potassium arsenate) was 0.149.

USP47 (UniProt Q96K76) was tested, and the thermal stability z-score (lipoamide; [1]) was -0.439, the thermal stability z-score (lipoamide; arsenate co-treatment: none) was -0.436 and the thermal stability z-score (potassium arsenate) was 0.244.

BRCC3 (UniProt P46736) gave a thermal stability z-score (lipoamide; [1]) of -0.0792, a thermal stability z-score (lipoamide; arsenate co-treatment: none) of 0.172 and a thermal stability z-score (potassium arsenate) of 0.468.

In the case of IDH2 (UniProt P48735), the thermal stability z-score (lipoamide; [1]) is reported as -0.129, the thermal stability z-score (lipoamide; arsenate co-treatment: none) is reported as 0.0632 and the thermal stability z-score (potassium arsenate) is reported as -0.911.

For TTC28 (UniProt Q96AY4), the thermal stability z-score (lipoamide; [1]) was -0.0855, the thermal stability z-score (lipoamide; arsenate co-treatment: none) was -0.0784 and the thermal stability z-score (potassium arsenate) was -0.0135.

Work on RPL15 (UniProt P61313) yielded a thermal stability z-score (lipoamide; [1]) of 0.537, a thermal stability z-score (lipoamide; arsenate co-treatment: none) of 0.113 and a thermal stability z-score (potassium arsenate) of -0.589.

With DENR (UniProt O43583) the thermal stability z-score (lipoamide; [1]) was 0.109, the thermal stability z-score (lipoamide; arsenate co-treatment: none) was -0.188 and the thermal stability z-score (potassium arsenate) was -0.702.

In the case of PLPP1 (UniProt O14494), the thermal stability z-score (lipoamide; [1]) is reported as -0.53, the thermal stability z-score (lipoamide; arsenate co-treatment: none) is reported as 0.262 and the thermal stability z-score (potassium arsenate) is reported as 0.324.

Target PPP4R1 (UniProt Q8TF05) has a thermal stability z-score (lipoamide; [1]) of 0.26, a thermal stability z-score (lipoamide; arsenate co-treatment: none) of 0.0864 and a thermal stability z-score (potassium arsenate) of 0.0118.

For FNTA (UniProt P49354), the thermal stability z-score (lipoamide; [1]) was -0.0233, the thermal stability z-score (lipoamide; arsenate co-treatment: none) was -0.0253 and the thermal stability z-score (potassium arsenate) was 0.355.

Work on ACYP2 (UniProt P14621) yielded a thermal stability z-score (lipoamide; [1]) of 0.611, a thermal stability z-score (lipoamide; arsenate co-treatment: none) of 0.261 and a thermal stability z-score (potassium arsenate) of -0.0225.

RALBP1 (UniProt Q15311) gave a thermal stability z-score (lipoamide; [1]) of 0.0469, a thermal stability z-score (lipoamide; arsenate co-treatment: none) of 0.055 and a thermal stability z-score (potassium arsenate) of 0.00922.

MGAT2 (UniProt Q10469) gave a thermal stability z-score (lipoamide; [1]) of -0.206, a thermal stability z-score (lipoamide; arsenate co-treatment: none) of -0.0594 and a thermal stability z-score (potassium arsenate) of 0.24.

TIGAR (UniProt Q9NQ88) was tested, and the thermal stability z-score (lipoamide; [1]) was -1.91, the thermal stability z-score (lipoamide; arsenate co-treatment: none) was 0.677 and the thermal stability z-score (potassium arsenate) was 0.655.

With PHKA2 (UniProt P46019) the thermal stability z-score (lipoamide; [1]) was -0.174, the thermal stability z-score (lipoamide; arsenate co-treatment: none) was 0.096 and the thermal stability z-score (potassium arsenate) was -0.0062.

In the case of CTAG2 (UniProt O75638), the thermal stability z-score (lipoamide; [1]) is reported as -0.394, the thermal stability z-score (lipoamide; arsenate co-treatment: none) is reported as 0.0387 and the thermal stability z-score (potassium arsenate) is reported as 0.617.

In the case of ECHS1 (UniProt P30084), the thermal stability z-score (lipoamide; [1]) is reported as -0.919, the thermal stability z-score (lipoamide; arsenate co-treatment: none) is reported as -0.57 and the thermal stability z-score (potassium arsenate) is reported as -1.22.

Work on UBE4A (UniProt Q14139) yielded a thermal stability z-score (lipoamide; [1]) of -0.217, a thermal stability z-score (lipoamide; arsenate co-treatment: none) of -0.148 and a thermal stability z-score (potassium arsenate) of 0.86.

With DCUN1D4 (UniProt Q92564) the thermal stability z-score (lipoamide; [1]) was 0.0389, the thermal stability z-score (lipoamide; arsenate co-treatment: none) was -0.0281 and the thermal stability z-score (potassium arsenate) was -0.0972.

For TMEM126B (UniProt Q8IUX1), the thermal stability z-score (lipoamide; [1]) was 1.31, the thermal stability z-score (lipoamide; arsenate co-treatment: none) was 1.36 and the thermal stability z-score (potassium arsenate) was 1.18.

GTF2F2 (UniProt P13984) gave a thermal stability z-score (lipoamide; [1]) of 0.00925, a thermal stability z-score (lipoamide; arsenate co-treatment: none) of -0.239 and a thermal stability z-score (potassium arsenate) of -0.198.

With S100A11 (UniProt P31949) the thermal stability z-score (lipoamide; [1]) was 1.19, the thermal stability z-score (lipoamide; arsenate co-treatment: none) was 1.12 and the thermal stability z-score (potassium arsenate) was 0.639.

In the case of PRKCD (UniProt Q05655), the thermal stability z-score (lipoamide; [1]) is reported as -0.0378, the thermal stability z-score (lipoamide; arsenate co-treatment: none) is reported as 0.235 and the thermal stability z-score (potassium arsenate) is reported as -0.477.

Target PSME3 (UniProt P61289) has a thermal stability z-score (lipoamide; [1]) of 0.957, a thermal stability z-score (lipoamide; arsenate co-treatment: none) of 0.849 and a thermal stability z-score (potassium arsenate) of 0.504.

BICC1 (UniProt Q9H694) showed a thermal stability z-score (lipoamide; [1]) of 0.291, a thermal stability z-score (lipoamide; arsenate co-treatment: none) of 0.353 and a thermal stability z-score (potassium arsenate) of -0.19.

Target DHDDS (UniProt Q86SQ9) has a thermal stability z-score (lipoamide; [1]) of 1.01, a thermal stability z-score (lipoamide; arsenate co-treatment: none) of 0.391 and a thermal stability z-score (potassium arsenate) of 0.205.

RAE1 (UniProt P78406) was tested, and the thermal stability z-score (lipoamide; [1]) was 0.676, the thermal stability z-score (lipoamide; arsenate co-treatment: none) was 1.04 and the thermal stability z-score (potassium arsenate) was 0.662.

FCHO2 (UniProt Q0JRZ9) was tested, and the thermal stability z-score (lipoamide; [1]) was -0.472, the thermal stability z-score (lipoamide; arsenate co-treatment: none) was -0.218 and the thermal stability z-score (potassium arsenate) was 0.405.

In the case of GOLGA3 (UniProt Q08378), the thermal stability z-score (lipoamide; [1]) is reported as 0.291, the thermal stability z-score (lipoamide; arsenate co-treatment: none) is reported as 0.128 and the thermal stability z-score (potassium arsenate) is reported as 0.587.

Work on BCLAF1 (UniProt Q9NYF8) yielded a thermal stability z-score (lipoamide; [1]) of 1.93, a thermal stability z-score (lipoamide; arsenate co-treatment: none) of 0.229 and a thermal stability z-score (potassium arsenate) of -1.11.

In the case of ATP1B3 (UniProt P54709), the thermal stability z-score (lipoamide; [1]) is reported as -0.0616, the thermal stability z-score (lipoamide; arsenate co-treatment: none) is reported as -0.138 and the thermal stability z-score (potassium arsenate) is reported as -0.13.
